Patent US20240383882A1 (Ecstasy LLC, priority 2020, published 2024)
Structures can show the parent of a compound that is named as a salt. Where two headings read alike, the source gives them in different places.

System: male C57BL/6 mice
Test: 55° C. warm-water tail-flick test (antinociception)
Assay type: in vivo
Details: Mus musculus
Method: Antinociception was assessed using the 55° C. warm-water tail-flick test. The latency to the first sign of a rapid tail flick was taken as the behavioral endpoint. Each mouse was first tested for baseline latency by immersing its tail in the water and recording the time to response. Mice not responding within 2 secs were excluded from further testing. Responsive mice were then s.c. administered the test compound and tested for antinociception at 30 min, 60 min, 90 min, and 120 min time points afterward. Antinociception was calculated using the following formula: percentage of antinociception=100×(test latency−control latency)/(20−control latency).
The following new compounds were also made and tested to determine the half maximal possible effective dose, or ED50 (mg/kg), in mice, using one of: the warm water tail-flick test as in Table II, spared nerve injury, chronic constriction injury, or Complete Freund's adjuvant induced inflammatory pain. The symbols in the last column are: + indicates ED 50>50 mg/kg; ++ indicates ED 50 is less than or equal to 30 mg/kg.

[1] = sc, 0.5 h, compounds of Table I, s.c., 30 min, 55° C. water, configuration tested as in Table II, read-out: ED50 (mg/kg) at 30 min on C57BL/6 mice in Warm-water Tail-flick Test
[2] = half maximal effective dose in mice, using one of: warm water tail-flick test, spared nerve injury, chronic constriction injury, or Complete Freund's adjuvant induced inflammatory pain (not stated which per compound), read-out: Biological Activity (ED50)

SMILES | ED50 [1] | ED50 [2]
CCC(C)(c1ccc(C)nc1)N1CCC(CCc2cccs2)(C2OCCc3ccccc32)C1 (single isomer, unassigned) [Compound 89, 5-(2-((R or S)-3-((S or R)-isochroman-1-yl)-3-(2-(thiophen-2-yl)ethyl)pyrrolidin-1-yl)butan-2-yl)-2-methylpyridine citrate] | ≤ 30 mg/kg | –
Cc1ccc(C(C)(C)N2CCC(CCc3ccc(F)s3)(C3OCCc4ccccc43)C2)cn1 (single isomer, unassigned) [Compound 94, 5-(2-((R or S)-3-(2-(5-fluorothiophen-2-yl)ethyl)-3-((R or S)-isochroman-1-yl)pyrrolidin-1-yl)propan-2-yl)-2-methylpyridine citrate] | ≤ 30 mg/kg | –
CCOC(c1ccccc1)C1(CCc2ccc(F)s2)CCN(C(C)(C)c2ccc(C)nc2)C1 (single isomer, unassigned) [Compound 97, 5-(2-((R or S)-3-((R or S)-ethoxy(phenyl)methyl)-3-(2-(5-fluorothiophen-2-yl)ethyl)pyrrolidin-1-yl)propan-2-yl)-2-methylpyridine citrate] | ≤ 30 mg/kg | –
CC(C)(c1ccc(Cl)cc1)N1CC[C@](CCc2ccc(S(C)(=O)=O)cc2)(C(O)C(F)(F)F)C1 (single isomer, unassigned) [Compound 98, (R or S)-1-((S)-1-(2-(4-chlorophenyl)propan-2-yl)-3-(4-(methylsulfonyl)phenethyl)pyrrolidin-3-yl)-2,2,2-trifluoroethan-1-ol] | – | ≤ 30 mg/kg
CCOCC1(CCn2c(=O)[nH]c3cc(F)c(F)cc32)CCN(C(C)(C)c2ccc(C)nc2)C1 (single isomer, unassigned) [Compound 99] | ≤ 30 mg/kg | –
CC(C)(c1ccccn1)N1CC[C@@](CCc2ccc(C#N)c(F)c2)(C(O)C(F)(F)F)C1 (single isomer, unassigned) [Compound 103, 2-fluoro-4-(2-((R)-1-(2-(pyridin-2-yl)propan-2-yl)-3-((R or S)-2,2,2-trifluoro-1-hydroxyethyl)pyrrolidin-3-yl)ethyl) benzonitrile] | – | > 50 mg/kg
Cc1ccc(C(C)(C)N2CCC(CCc3ccc(F)s3)(CN3CCOCC3)C2)cn1 (single isomer, unassigned) [Compound 106] | ≤ 30 mg/kg | –
Cc1ccc(C(C)(C)N2CCC(CCc3ccc(F)s3)(c3nccn3C)C2)cn1 (single isomer, unassigned) [Compound 114] | ≤ 30 mg/kg | –
CC(C)(c1ccccn1)N1CC[C@@](CCc2ccc(C#N)cc2F)(C(O)C(F)(F)F)C1 (single isomer, unassigned) [Compound 116, 3-fluoro-4-(2-((R)-1-(2-(pyridin-2-yl)propan-2-yl)-3-((R or S)-2,2,2-trifluoro-1-hydroxyethyl)pyrrolidin-3-yl)ethyl) benzonitrile] | – | > 50 mg/kg
CC(C)(c1ccccn1)N1CC[C@@](CCc2ccc(C#N)cn2)(C(O)C(F)(F)F)C1 (single isomer, unassigned) [Compound 120, 6-(2-((R)-1-(2-(pyridin-2-yl)propan-2-yl)-3-((R or S)-2,2,2-trifluoro-1-hydroxyethyl)pyrrolidin-3-yl)ethyl) nicotinonitrile] | – | > 50 mg/kg
Cc1ccc(C(C)(C)N2CCC(CCc3ccc(F)s3)(CNS(=O)(=O)N(C)C)C2)cn1 (single isomer, unassigned) [Compound 121] | ≤ 30 mg/kg | –
Cc1ccc(S(=O)(=O)NCC2(CCc3cc(C)c(C)s3)CCN(C(C)(C)c3ccc(C)nc3)C2)cc1 (single isomer, unassigned) [Compound 126] | ≤ 30 mg/kg | –
CC(C)(c1ccccn1)N1CC[C@@](CCc2cccc(C#N)c2)(C(O)C(F)(F)F)C1 (single isomer, unassigned) [Compound 134, 3-(2-((R)-1-(2-(pyridin-2-yl)propan-2-yl)-3-((R or S)-2,2,2-trifluoro-1-hydroxyethyl)pyrrolidin-3-yl)ethyl) benzonitrile] | – | > 50 mg/kg
